These results are taken from ChEMBL document CHEMBL5247584, “Design, synthesis and evaluation of fused hybrids with acetylcholinesterase inhibiting and Nrf2 activating functions for Alzheimer's disease” (Eur J Med Chem, 2022).

In data set [1] the target is T1, Nuclear factor erythroid 2-related factor 2 (Rattus norvegicus) (UniProt O54968).
T1 sequence (whole entry): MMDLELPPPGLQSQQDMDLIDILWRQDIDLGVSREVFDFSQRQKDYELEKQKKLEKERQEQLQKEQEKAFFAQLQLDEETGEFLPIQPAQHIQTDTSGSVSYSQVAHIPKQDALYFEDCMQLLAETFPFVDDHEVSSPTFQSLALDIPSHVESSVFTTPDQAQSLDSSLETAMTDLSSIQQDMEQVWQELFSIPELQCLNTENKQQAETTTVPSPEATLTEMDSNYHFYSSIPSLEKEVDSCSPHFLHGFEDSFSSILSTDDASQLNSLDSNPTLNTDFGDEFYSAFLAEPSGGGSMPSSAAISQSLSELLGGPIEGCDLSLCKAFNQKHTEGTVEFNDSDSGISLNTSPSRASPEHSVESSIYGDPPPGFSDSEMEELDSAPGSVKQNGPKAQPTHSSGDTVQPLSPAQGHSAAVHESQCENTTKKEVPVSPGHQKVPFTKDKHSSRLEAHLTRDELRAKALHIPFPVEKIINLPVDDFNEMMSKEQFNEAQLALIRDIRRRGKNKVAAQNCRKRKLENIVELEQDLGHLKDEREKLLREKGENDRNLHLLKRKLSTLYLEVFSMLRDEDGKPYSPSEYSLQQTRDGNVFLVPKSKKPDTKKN
Description: Activation of Nrf2 pathway in rat PC-12 cells assessed as fold increase in HO-1 expression level at 1 to 20 uM measured at 6 hrs by qRT-PCR analysis. The data set is classed as cell-based. To be noted: PC12, filed as activator, dose 1-20 µM. A general note: Quantitative PCR measures a nucleic acid by following its amplification.

Data set [2] addresses T1, Nuclear factor erythroid 2-related factor 2 (Rattus norvegicus). Description: Activation of Nrf2 pathway in rat PC-12 cells assessed as fold increase in NQO1 expression level at 1 to 20 uM measured at 6 hrs by qRT-PCR analysis. To be noted: PC12, filed as activator, dose 1-20 µM. Type of data set: cell-based.
The test system of data set [3] is PC-12. Description: Cytoprotective activity against H2O2-induced cell damage in rat PC12 cells assessed as reduction in cell injury measured after 24 hrs by MTT assay relative to control. Type of data set: functional, cell-based. To be noted: dose 1-20 µM. In general terms: Formazan colour is commonly taken as a measure of viable cells.
Data set [4] deals with Cholinesterase (Equus caballus, UniProt P81908). Description: Inhibition of equine serum BuChE using ATC and BTC iodide as substrate preincubated for 5 mins followed by substrate addition and measured after 2 mins by DTNB reagent based assay.
The test system of data set [5] is Mus musculus. Description: Antiinflammatory activity Abeta1-42-induced against ICR mouse assessed as increase in TGF-beta1 level at 10 mg/kg, po by ELISA analysis. The data set is classed as functional, organism-based. On the technique in general: An ELISA detects its analyte on a solid surface through an enzyme-linked reagent.
Data set [6] can be described thus: Hepatotoxicity in […] assessed as effect on AST level. Type of data set: toxicity, cell-based.
The subject of data set [7] is BV-2. Description: Antiinflammatory activity against LPS-injured mouse BV-2 cells assessed as decrease in IL-6 level at 5 uM by immunofluorescence staining based analysis. The data set is classed as functional, cell-based.
The subject of data set [8] is Mus musculus. Description: Antiinflammatory activity Abeta1-42-induced against ICR mouse assessed as increase in TGF-beta1 level at 20 mg/kg, po by ELISA analysis. Type of data set: functional, organism-based.
Data set [9] has as its system SH-SY5Y. Description: Neuroprotective activity against Abeta1-42-induced human SH-SY5Y cells assessed as reduction in cell damage preinubated for 2 hrs followed by Abeta1-42 induction and measured after 24 hrs by MTT assay. Type of data set: functional, cell-based. The conditions noted are these: time 26.0 hrs.
The subject of data set [10] is BV-2. Description: Antiinflammatory activity against LPS-injured mouse BV-2 cells assessed as decrease in IL-1beta level at 5 uM by immunofluorescence staining based analysis. Type of data set: functional, cell-based.
The target in data set [11] is T1, Nuclear factor erythroid 2-related factor 2 (Rattus norvegicus). Description: Activation of Nrf2 pathway in rat PC-12 cells assessed as fold increase in GCLM level at 20 uM measured at 2 hrs by qRT-PCR analysis. Type of data set: cell-based. To be noted: PC12, filed as activator.
Data set [12] shares this target. Description: Activation of Nrf2 pathway in rat PC-12 cells assessed as fold increase in NQO1 level at 20 uM measured at 2 hrs by qRT-PCR analysis. The data set is classed as cell-based. The conditions noted are these: PC12, filed as activator.
Data set [13] shares this target. Description: Activation of Nrf2 pathway in rat PC-12 cells assessed as fold increase in Nrf2 level at 20 uM measured at 2 hrs by qRT-PCR analysis. The data set is classed as cell-based. To be noted: PC12, filed as activator.
Data set [14] deals with PC-12. Description: Cytotoxicity against rat PC12 cells assessed as growth inhibition at 5 uM after 24 hrs by MTT assay. Type of data set: toxicity, cell-based. To be noted: pc-12, 24 h.

Structures are written as SMILES. Calls of active or inactive are those of the source. No cut-off for these calls is given here.

Chain of Cholinesterase (P81908 whole entry): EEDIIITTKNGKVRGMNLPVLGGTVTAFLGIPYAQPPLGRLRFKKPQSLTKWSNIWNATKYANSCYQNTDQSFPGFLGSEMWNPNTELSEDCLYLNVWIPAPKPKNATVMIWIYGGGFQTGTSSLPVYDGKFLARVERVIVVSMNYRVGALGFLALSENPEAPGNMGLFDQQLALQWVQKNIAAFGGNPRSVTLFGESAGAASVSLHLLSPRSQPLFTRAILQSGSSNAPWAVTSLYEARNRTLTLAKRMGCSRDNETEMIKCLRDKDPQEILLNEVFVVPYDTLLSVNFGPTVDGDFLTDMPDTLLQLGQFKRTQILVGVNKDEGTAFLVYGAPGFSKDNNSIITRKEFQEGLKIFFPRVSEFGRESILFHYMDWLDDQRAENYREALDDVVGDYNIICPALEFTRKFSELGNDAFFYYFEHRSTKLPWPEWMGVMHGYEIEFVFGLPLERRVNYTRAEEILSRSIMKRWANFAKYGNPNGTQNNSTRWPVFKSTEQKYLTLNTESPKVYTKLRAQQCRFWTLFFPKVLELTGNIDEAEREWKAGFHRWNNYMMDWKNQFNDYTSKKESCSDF

For orientation: IC50 means the concentration needed to halve the response being measured. Low readings indicate inhibition by little substance, high ones a need for much substance. With `Cc1ccc(-c2noc(-c3cccc(OCC4CCN(Cc5cccc(F)c5)CC4)c3)n2)cn1`, the fold change (FC) in data set [1] was 4; in data set [2] it was 4; in data set [11] it was 8; in data set [12], 8; in [13], 4. Besides, the Activity entry in data set [3] was “Dose-Dependent Effect”; in data set [6], “Non-Toxic”; in [14], “Non-Toxic”. The molecule further had an IC50 in [4] of 8.15 µM. Further, the outcome in [5], in data set [8] and in [9] was Active. Further, the outcome in [7] and in data set [10] was inactive.
